Common to all, as to assay type: cell-based, human
One assay deals with H1650. Briefly: Non Small Cell Lung Cancer proliferation assay (Alamar Blue reduction), H1650. Conditions: Homo sapiens, NCI-H1650, primary screening, 10 μM compound in 1% DMSO (v/v). The procedure: (§1) These cells have a doubling time of 1-2 days. All cell types are adherent and grow in colonies. The cells should be kept at a density between 50,000 cells/mL -500,000 cells/mL to provide for optimum growth and adequate nutrition. The cell line should be maintained at 37° C. in a humidified atmosphere with 5% CO2 in a sterile cell culture incubator.
(§2) Non Small Cell Lung Cancer Proliferation Assay.
(§3) High Controls for this assay are made by treating Non Small Cell Lung Cancer cells with 5 ul of 10% DMSO. [Final concentration in this assay is 1% DMSO].
(§4) Important Note: All compounds for testing in this assay should be done at the final concentration of 1% DMSO.
(§5) After addition, the cells are placed in cell culture incubator at 37° C. for 48 hours for complete treatment.
(§6) After drug treatment, cytotoxicity is measured by Alamar Blue reduction.
(§7) The cells are incubated for 48 hours at 37° C. to complete the Alamar Blue reduction.
(§8) The final step in the assay is to measure the amount of Alamar Blue reduction. […] The Alamar Blue fluorescence is measured at an excitation of 530 nm and emission of 590 nm.
(§9) For the NSCLC project, the cell based assay was screened against a small molecule library of approximately 200,000 compounds. The compound library is stored in our automated robotic freezer (Biophile) at −20° C. in 100% DMSO. Compound freeze and thaw cycles are kept to a minimum. […] This assay was performed on a fully automated linear track robotic platform (CRS F3 Robot System, Thermo Electron Corp., Ontario, Canada) utilizing several integrated peripherals for plate handling, liquid dispensing, and readout detection. […] The microplates are then placed at 37° C. for 48 hours to complete treatment of cells with compounds. Next, 5 ul of alamar blue was added using a liquid dispenser (Flexprop Precision Dispenser, Perkin Elmer, Mass., USA) and incubated for 48 hours at 37° C. The alamar blue prompt fluorescence was measured on Victor V (Victor^3 V, Perkin Elmer, Mass., USA) and output data files were loaded into ORIS (Oncology Research Informatics System, MSKCC, NY, USA), a screening data acquisition and analysis platform.
(§10) The dose response studies were done with the following standard procedure. First, the cells were counted and dispensed at 250 cells/well into 384-well microplates with compound. The cells were incubated for 48 hours at 37 C to complete treatment, and then alamar blue was added for an additional 48 hours. Finally, alamar blue reduction was measured and the data was loaded into ORIS, our data screening acquisition platform.
For orientation: Alamar Blue is a resazurin reagent that responds to reducing activity.

The next assay has as its system H1975. Briefly: Non Small Cell Lung Cancer proliferation assay (Alamar Blue reduction), H1975. As to conditions: Homo sapiens, NCI-H1975, primary screening, 10 μM compound in 1% DMSO (v/v). As for the experimental part: as §1, §2, §3, §4, §5, §6, §7, §8, §9, §10
In a further assay the test system is H2030. Description: Non Small Cell Lung Cancer proliferation assay (Alamar Blue reduction), H2030. As to conditions: Homo sapiens, NCI-H2030, primary screening, 10 μM compound in 1% DMSO (v/v). The procedure:
as §1, §2, §3, §4, §5, §6, §7, §8, §9, §10

The test system of the next assay is H3255. Description: Non Small Cell Lung Cancer proliferation assay (Alamar Blue reduction), H3255. As to conditions: Homo sapiens, NCI-H3255, primary screening, 10 μM compound in 1% DMSO (v/v). The procedure:
as §1, §2, §3, §4, §5, §6, §7, §8, §9, §10

[1] abbreviates: read-out: percentage inhibition H1650.
Where [2] appears, read: read-out: percentage inhibition H1975.
The mark [3] stands for this setting: read-out: percentage inhibition H2030.
Setting [4] is: read-out: percentage inhibition H3255.
Where [5] appears, read: H1650, read-out: PRIMARY HTS [%] H1650 (percentage inhibition).
[6] abbreviates: H1975, read-out: PRIMARY HTS [%] H1975 (percentage inhibition).
Where [7] appears, read: H2030, read-out: PRIMARY HTS [%] H2030 (percentage inhibition).
The mark [8] stands for this setting: H3255, read-out: PRIMARY HTS [%] H3255 (percentage inhibition).

Structures are written as SMILES. Where two headings read alike, the source gives them in different places.

For `COc1ccc(-n2nc(C(=O)c3ccccc3)cc(-c3nc4ccccc4[nH]3)c2=N)cc1` [compound 193067], the inhibition (commonly the change of the read-out against control, counted positive when it falls) at 10 µM in the assay on H1650 (setting [1]) is -7%; in the assay on H1975 (setting [2]), 21%; with H2030 (setting [3]), 4%; in the assay on H3255 (setting [4]), -35%.
For `Cc1ccccc1-n1nc(C(=O)c2cccs2)cc(-c2nc3ccccc3[nH]2)c1=N` [compound 186018], the inhibition at 10 µM with H1650 (setting [1]) is 42%; in the assay on H1975 (setting [2]) it was -4%; in the assay with H2030 (setting [3]), 4%; with H3255 (setting [4]) it was 35%.
`O=c1c(SCc2ccc(Cl)cc2)c(SC2CCCCO2)cnn1-c1ccccc1` (stereo not shown) [compound 195063]: the inhibition at 10 µM in the assay with H1650 (setting [1]) was 22%; in the assay with H1975 (setting [2]) it was 34%; in the assay with H2030 (setting [3]) it was -6%; with H3255 (setting [4]) it was -6%.
As to `COc1c(Cl)cnn(-c2cccc(C)c2)c1=O` [compound 104415], the inhibition at 10 µM is -20% in the assay with H1650 (setting [1]), 15% with H1975 (setting [2]), -3% with H2030 (setting [3]) and 9% with H3255 (setting [4]).
`O=c1c(SCc2ccccc2)c(SCc2ccc(Cl)cc2)cnn1-c1ccccc1` [compound 208705]: the inhibition at 10 µM in the assay with H1650 (setting [1]) was -4%; in the assay with H1975 (setting [2]), -20%; with H2030 (setting [3]), 10%; with H3255 (setting [4]) it was 0%.
With `Cc1cccc(NC(=O)c2cc3cc([N+](=O)[O-])ccc3o2)c1` [compound 84487], the inhibition at 10 µM is 27% in the assay with H1650 (setting [5]), -5% in the assay on H1975 (setting [6]), 5% with H2030 (setting [7]) and 3% with H3255 (setting [8]).
For `O=c1ccc(O)nn1-c1ccccc1` [compound 189286], the inhibition at 10 µM with H1650 (setting [1]) was 0%; in the assay with H1975 (setting [2]) it was 9%; in the assay on H2030 (setting [3]), 5%; in the assay on H3255 (setting [4]) it was -15%.
Consider `COc1ccc(-n2nc(C(=O)c3cccs3)cc(-c3nc4ccccc4[nH]3)c2=N)cc1` [compound 186925], for which the inhibition at 10 µM is 6% with H1650 (setting [1]), 3% with H1975 (setting [2]), 1% in the assay on H2030 (setting [3]) and -28% with H3255 (setting [4]).
In the same order, the values of `Cc1c(C(=O)c2ccccc2)nn(-c2ccccc2Cl)c(=N)c1C#N` [compound 227247] are -16%, -9%, -1% and 11%.
In the case of `O=C(Nc1ccc(N2CCN(C(=O)c3ccco3)CC2)cc1)c1ccco1` [compound 97253], the inhibition at 10 µM in the assay on H1650 (setting [5]) is -2%; with H1975 (setting [6]) it was -15%; with H2030 (setting [7]) it was -5%; in the assay with H3255 (setting [8]), -3%.
As to `CCOC(=O)NCCOc1cnn(-c2ccc(Cl)cc2)c(=O)c1Cl` [compound 199764], the inhibition at 10 µM in the assay on H1650 (setting [1]) is -11%; in the assay on H1975 (setting [2]) it was -14%; in the assay with H2030 (setting [3]), -9%; in the assay with H3255 (setting [4]), 2%.
`CCOC(=O)C(C)Oc1ccc(=O)n(-c2ccccc2)n1` (stereo not shown) [compound 185423]: the inhibition at 10 µM was 16% with H1650 (setting [1]), -9% in the assay with H1975 (setting [2]), 3% with H2030 (setting [3]) and 23% in the assay on H3255 (setting [4]).
Taken in the same sequence, the figures for `CSc1cnn(-c2ccccc2)c(=O)c1Cl` [compound 104185] were -9%, 22%, -2% and 1%.
For `O=C(Cc1ccccc1)Oc1ccc(=O)n(-c2ccccc2)n1` [compound 180651], the inhibition at 10 µM in the assay with H1650 (setting [1]) was determined as 21%; in the assay on H1975 (setting [2]), 13%; with H2030 (setting [3]) it was 11%; with H3255 (setting [4]), 35%.
As for `Cc1ccc(C(C)C)c(OCC(=O)Oc2ccc(=O)n(-c3ccccc3)n2)c1` [compound 228706], the inhibition at 10 µM in the assay on H1650 (setting [1]) is -16%; with H1975 (setting [2]) it was -11%; with H2030 (setting [3]), 5%; in the assay with H3255 (setting [4]), -25%.
For the compound `Cc1cc(N(C)C)c(=O)n(-c2ccccc2)n1` [compound 189015], the inhibition at 10 µM is 21% with H1650 (setting [1]), 29% with H1975 (setting [2]), -4% in the assay on H2030 (setting [3]) and 32% in the assay on H3255 (setting [4]).
As for `Cc1ccc(C(=O)Nc2ccc(NC(=O)c3ccco3)c(C)c2)c(Cl)c1` [compound 61302], the inhibition at 10 µM was 13% with H1650 (setting [5]), 16% with H1975 (setting [6]), -2% in the assay on H2030 (setting [7]) and 2% with H3255 (setting [8]).
Consider `CN(C(=O)c1ccc([N+](=O)[O-])o1)c1ccccc1` [compound 104003], for which the inhibition at 10 µM in the assay on H1650 (setting [5]) is -3%; in the assay with H1975 (setting [6]), 18%; with H2030 (setting [7]), 0%; in the assay on H3255 (setting [8]), 5%.
For `NCCOc1cnn(-c2ccccc2Cl)c(=O)c1Cl` [compound 200052], the inhibition at 10 µM with H1650 (setting [1]) is -9%; with H1975 (setting [2]), 5%; in the assay on H2030 (setting [3]), 12%; in the assay with H3255 (setting [4]), -18%.
In the case of `O=[N+]([O-])c1ccc(CN2CCN(c3ccccc3)CC2)o1` [compound 100483], the inhibition at 10 µM in the assay with H1650 (setting [5]) is -1%; with H1975 (setting [6]), -8%; in the assay with H2030 (setting [7]), -1%; in the assay with H3255 (setting [8]), 1%.
As to `O=C(Nc1ccc(Cl)cc1)c1ccco1` [compound 78158], the inhibition at 10 µM with H1650 (setting [5]) is 20%; in the assay on H1975 (setting [6]) it was -2%; in the assay on H2030 (setting [7]), 6%; in the assay on H3255 (setting [8]) it was 4%.
As to `COc1cnn(-c2ccccc2)c(=O)c1N(C)C` [compound 103971], the inhibition at 10 µM was 5% in the assay on H1650 (setting [1]), -10% with H1975 (setting [2]), 1% in the assay on H2030 (setting [3]) and -1% with H3255 (setting [4]).
Take `O=C(Nc1ccccc1C(=O)NCc1ccc(Cl)cc1)c1ccco1` [compound 88935]: the inhibition at 10 µM is -4% in the assay on H1650 (setting [5]), -10% in the assay with H1975 (setting [6]), -1% in the assay on H2030 (setting [7]) and -2% in the assay on H3255 (setting [8]).
Turning to `O=c1cc(N2CCOCC2)cnn1-c1ccccc1` [compound 195066], the inhibition at 10 µM was 8% in the assay with H1650 (setting [1]), -3% with H1975 (setting [2]), 9% in the assay on H2030 (setting [3]) and -9% in the assay with H3255 (setting [4]).
With `O=C(Nc1ccc(NC(=O)c2ccco2)cc1)c1ccc(-c2ccccc2)cc1` [compound 76739], the inhibition at 10 µM in the assay on H1650 (setting [5]) was 13%; in the assay on H1975 (setting [6]), -9%; with H2030 (setting [7]), 3%; with H3255 (setting [8]) it was 5%.
On to `Cc1cccc(-n2ncc(SCc3ccccc3)c(SCc3ccccc3)c2=O)c1` [compound 208703], for which the inhibition at 10 µM is 2% with H1650 (setting [1]), -18% with H1975 (setting [2]), 9% with H2030 (setting [3]) and 16% with H3255 (setting [4]).
As to `Cc1ccc(-n2nc(C#N)c(-c3ccccc3)c(C#N)c2=O)cc1` [compound 224358], the inhibition at 10 µM was -4% in the assay on H1650 (setting [1]), -9% in the assay with H1975 (setting [2]), -2% in the assay on H2030 (setting [3]) and -14% in the assay with H3255 (setting [4]).
Consider `O=C(Nc1ccc(NC(=O)c2ccco2)c(O)c1)c1ccccc1` [compound 76839], for which the inhibition at 10 µM in the assay on H1650 (setting [5]) was 20%; in the assay on H1975 (setting [6]) it was 3%; with H2030 (setting [7]), -6%; in the assay on H3255 (setting [8]) it was 2%.
